Row | Compound | melting point [°C]
1 | COc1cc(-n2c(C)c(CC(=O)O)c3cc(C)ccc32)nc(OC)n1 | 197 to 198
2 | COc1nc(NC(=O)Nc2ccccc2OC)nc(N(CCC(=O)O)Cc2ccc(Cl)c(Cl)c2)n1 | 208 to 210
3 | Oc1ccc(-c2nc(Cn3ccnn3)cs2)cc1 | 164 to 166
4 | CS(=O)c1cc(C(=O)O)c(Cl)cc1Cl (centres undefined) | 200 to 201
5 | COc1ccccc1C(=O)Nc1ccc(F)cc1 | 79.6 to 80.2
6 | NC(=O)c1sc2nccc(N3CCOCC3)c2c1N | 232 to 234
7 | CN1CC(CCCl)Oc2ccc(Br)cc2C1=S (centres undefined) | 118 to 120
8 | C/C(NCCCc1ccccc1)=C(\C#N)C(N)=S | 125 to 126
9 | Cc1c(NC(=O)CC(C)(C)C)c(C)c2c(c1-c1ccoc1)OCC2c1ccc(C(C)C)cc1 (centres undefined) | 183 to 185
10 | CC(=O)Nc1cccc(-c2[nH]c3cccc4c3c2CCNC4=O)c1 | 300 to 302
11 | OCCCc1cc(-c2ccc(C(F)(F)F)cc2)no1 | 59 to 60
12 | O=[N+]([O-])OCCNC(=S)Cc1ccccc1 | 63 to 65
13 | Cc1[nH]c(C(C)(C)C)nc1C=O | 196 to 198
14 | CCn1cc(C(=O)O)c(=O)c2cnc(N3CCN(CCO)CC3)nc21 | 222
15 | CCCC1Sc2nncn2N=C1c1ccc2c(c1)NC(=O)CO2 (centres undefined) | 235 to 237
16 | CCCc1nc2c(N)nc3cc(-c4ccccc4)ccc3c2n1CCCC(C)=O | 202 to 204
17 | O=C(Nc1nccs1)c1nc(-c2ccc([N+](=O)[O-])cc2)[nH]c1-c1ccc(CO)cc1 | 249 to 252
18 | O=C(CBr)OCCCCOC(=O)CBr | 62 to 62.5
19 | CN(C)CC=Cc1ccc2c(c1)CCCN2C(=O)c1ccc(-c2ccc(Cl)cc2)cc1 | 162 to 164
20 | CC(CS)C(=O)N1CCCC1C(=O)NC(C)C(=O)O (centres undefined) | 128 to 130
21 | COC(=O)c1cc(OC(C)=O)c2cc(-c3ccc4c(c3)C(C)(C)CCC4(C)C)ccc2c1C | 170
22 | COc1ccc(Sc2ncccc2C(=O)NCC23CC4CC(CC(C4)C2)C3)cc1 | 130 to 131

Row | Compound | melting point [°C]
23 | CNS(=O)(=O)CCc1ccc2[nH]cc(C3CCN(C)CC3)c2c1 | 156 to 158
24 | Cc1[nH]cnc1CN1CC2COc3ccccc3N2C1=O (centres undefined) | 212 to 216
25 | COC(=O)c1oc(C(C)(C)C)cc1N | 91 to 92
26 | O=C1CCC(CC(O)C(=O)OCc2ccccc2)N1 (centres undefined) | 95 to 96
27 | O=C(O)c1cc([N+](=O)[O-])cc(Br)n1 | 172 to 173
28 | N#Cc1ccc(O)cc1Cl | 157 to 158
29 | COC(=O)CCn1cnc2c(Cl)ncnc21 | 93.5
30 | Oc1nc2cc(Cl)c3nc[nH]c3c2nc1O | > 300
31 | N#Cc1n[nH]c2ccccc12 | 138 to 140
32 | CN1C(=O)c2c(Cl)cc(Cl)c(Cl)c2C1=O | 166 to 168
33 | O=C(NCCc1cncn1Cc1ccc(Cl)cc1)[C@H]1CN(Cc2ccccc2)CCN1C(=O)NC1CCCCC1 | 116
34 | CN(C)C1CCC(O)(c2ccccc2Cc2ccccc2)CC1 (centres undefined) | 140 to 141
35 | OCCC1c2ccccc2-c2ccccc21 | 97
36 | COc1ccc2c(c1)Sc1ccc(SC)cc1C(Cl)C2 (centres undefined) | 120 to 123
37 | CC(=O)OCc1nn(C(C)=O)c2cccc(OCc3ccccc3)c12 | 99 to 100
38 | OC(C1=NCC2CCCCN12)(c1ccccc1)c1ccccc1 (centres undefined) | 131 to 133
39 | COc1cc(OCCCN2CCC[C@H]2C)ccc1-c1ccc(=O)[nH]n1 | 182 to 186
40 | CCN(C(C)=O)c1cccc(-c2ccc(Cl)nn2)c1 | 116 to 119
41 | Oc1cnc2c(c1)CCC(c1ccc(Cl)c(Cl)c1)O2 (centres undefined) | 218 to 219
42 | CC(C)N1CC(C(=O)c2c[nH]c(Cc3ccc(F)cc3)n2)=C(O)C1=O | 220
43 | CC(C)OC(=O)C(C(=O)OC(C)C)=C1SC2C(S1)N(C)CCN2C (centres undefined) | 93.6
44 | Nc1ncc(-c2ccc3nnn(Cc4ccc5ncccc5c4)c3n2)cn1 | 244 to 246

From a melting point compilation (Tetko et al.; mined from patent text by program, amines drawn as free bases though some values may be those of a salt)
